Where two headings read alike, the source gives them in different places.
What was measured:
h5-HT2A receptor [1] = molecular target: T1, h5-HT2A receptor (Homo sapiens, UniProt P28223); details: data not shown
hSERT [2] = molecular target: T2, hSERT (Homo sapiens, UniProt P31645); assay: Inhibition of [125I]RTI-55 binding, HEK-hSERT membranes
hNET [3] = molecular target: T3, hNET (Homo sapiens, UniProt P23975); assay: biochemical; assay type: binding
hSERT [4] = molecular target: T2, hSERT; assay: Inhibition of [3H]5-HT uptake, intact HEK-hSERT cells; assay type: cell-based
hNET [5] = molecular target: T3, hNET; assay: cell-based; assay type: cell-based
hDAT [6] = molecular target: T4, hDAT (Homo sapiens, UniProt Q01959); assay: Inhibition of [125I]RTI-55 binding, HEK-hDAT membranes
hDAT [7] = molecular target: T4, hDAT; assay: Inhibition of [3H]DA uptake, intact HEK-hDAT cells; assay type: cell-based
hDAT [8] = molecular target: T4, hDAT; assay: Superfusion release of preloaded [3H]DA from HEK-hDAT cells; assay type: cell-based; details: for time of peak/maximal [3H]DA release after addition of drug: 4-FMC 10 µM to 300 µM, mephedrone 30 µM, methylone 100 µM
hSERT [9] = molecular target: T2, hSERT; assay: Superfusion release of preloaded [3H]5-HT from HEK-hSERT cells; assay type: cell-based
hNET [10] = molecular target: T3, hNET; assay: Superfusion release of preloaded [3H]NE from HEK-hNET cells; assay type: cell-based; details: for % maximum release ± sem, hNET [3H]NE: relative to maximal AUC induced by METH (0.3 or 1 µM)
hVMAT2 [11] = molecular target: T5, hVMAT2 (Homo sapiens, UniProt Q05940); assay: Inhibition of [3H]DHTB binding, HEK-hVMAT2 membranes
hVMAT2 [12] = molecular target: T5, hVMAT2; assay: Inhibition of [3H]5-HT uptake, HEK-hVMAT2 membrane preparation; assay type: biochemical
hVMAT2 [13] = molecular target: T5, hVMAT2; assay: Superfusion release of preloaded [3H]NE from HEK-hVMAT2 cells; assay type: cell-based
h5-HT1A receptor [14] = molecular target: T6, h5-HT1A receptor (Homo sapiens, UniProt P08908); assay: [3H]8-OH-DPAT binding, HEK-h5-HT1A
T6 sequence (P08908 1-422): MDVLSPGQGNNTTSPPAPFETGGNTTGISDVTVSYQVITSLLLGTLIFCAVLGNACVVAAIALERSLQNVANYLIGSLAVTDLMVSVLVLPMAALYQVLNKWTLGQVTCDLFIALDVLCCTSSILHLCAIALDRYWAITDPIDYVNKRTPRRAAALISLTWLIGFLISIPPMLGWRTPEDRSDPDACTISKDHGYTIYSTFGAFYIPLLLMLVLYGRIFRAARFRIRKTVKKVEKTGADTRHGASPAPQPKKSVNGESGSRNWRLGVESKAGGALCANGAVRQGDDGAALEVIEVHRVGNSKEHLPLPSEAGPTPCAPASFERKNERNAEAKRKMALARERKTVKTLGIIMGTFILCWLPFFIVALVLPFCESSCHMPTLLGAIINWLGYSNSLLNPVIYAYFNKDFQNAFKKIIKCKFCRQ

h5-HT2C receptor [15] = molecular target: T7, h5-HT2C receptor (Homo sapiens, UniProt P28335); assay: biochemical; assay type: binding
T7 sequence (P28335 33-458): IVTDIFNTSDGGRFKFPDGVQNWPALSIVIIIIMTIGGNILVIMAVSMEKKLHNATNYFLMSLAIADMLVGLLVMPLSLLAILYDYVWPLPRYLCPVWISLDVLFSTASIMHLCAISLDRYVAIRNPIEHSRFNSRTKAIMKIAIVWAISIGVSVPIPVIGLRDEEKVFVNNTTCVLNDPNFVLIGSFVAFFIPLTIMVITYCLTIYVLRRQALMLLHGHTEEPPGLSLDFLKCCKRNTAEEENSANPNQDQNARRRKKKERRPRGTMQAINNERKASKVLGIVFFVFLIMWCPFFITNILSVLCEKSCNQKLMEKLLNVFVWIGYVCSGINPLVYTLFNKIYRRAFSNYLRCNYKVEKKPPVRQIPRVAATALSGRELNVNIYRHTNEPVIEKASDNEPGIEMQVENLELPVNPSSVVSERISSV

h5-HT1A receptor [16] = molecular target: T6, h5-HT1A receptor; assay: Stimulation of [35S]GTPγS binding, HEK-h5-HT1A membranes; assay type: biochemical; details: for Emax: read-out: h5-HT1A Stimulation of [35S]GTPγS binding % maximum stimulation ± sem
h5-HT2A receptor [17] = molecular target: T1, h5-HT2A receptor; assay: Inhibition of 5-HT-stimulated IP-1 formation; assay type: cell-based; details: for h5-HT2A Inhibition of 5-HT-stimulated IP-1 formation % maximum inhibition ± sem: 100 nM 5-HT, normalized to maximal inhibition by ketanserin (10 µM)
h5-HT2C receptor [18] = molecular target: T7, h5-HT2C receptor; assay: Inhibition of 5-HT-stimulated IP-1 formation; assay type: cell-based; details: for h5-HT2C Inhibition of 5-HT-stimulated IP-1 formation % maximum inhibition ± sem: 100 nM 5-HT, normalized to maximal inhibition by SB242084 (1 µM)
hSigma1 receptor = hSigma1 receptor (Homo sapiens, UniProt Q99720); assay: [3H]; assay type: binding; details: Inhibition of [3H]pentazocine binding Ki ± sem, hSigma1
[19] = blood from heart, periphery, and femoral veins; postmortem cases; ref [32];[33];[34]; cited from earlier work
h5-HT2A receptor [20] = molecular target: T1, h5-HT2A receptor; assay: [125I]DOI binding, HEK-h5-HT2A
human DA D2 receptor = human DA D2 receptor (Homo sapiens, UniProt P14416); assay type: binding
human DA D2 receptor, sequence (P14416 whole entry): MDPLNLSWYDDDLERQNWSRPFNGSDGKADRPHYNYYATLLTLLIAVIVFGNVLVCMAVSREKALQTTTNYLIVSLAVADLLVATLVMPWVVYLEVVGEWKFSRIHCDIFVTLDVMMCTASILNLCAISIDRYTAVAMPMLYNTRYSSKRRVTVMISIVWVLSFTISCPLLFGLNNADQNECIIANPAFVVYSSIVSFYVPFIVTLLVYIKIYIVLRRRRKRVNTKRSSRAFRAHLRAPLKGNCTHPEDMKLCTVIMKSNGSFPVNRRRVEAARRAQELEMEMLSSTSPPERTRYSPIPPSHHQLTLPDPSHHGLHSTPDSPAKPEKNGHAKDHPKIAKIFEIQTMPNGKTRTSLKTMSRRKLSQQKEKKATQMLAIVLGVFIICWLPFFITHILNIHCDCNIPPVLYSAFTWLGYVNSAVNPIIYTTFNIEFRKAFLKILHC

T3 sequence (P23975 whole entry): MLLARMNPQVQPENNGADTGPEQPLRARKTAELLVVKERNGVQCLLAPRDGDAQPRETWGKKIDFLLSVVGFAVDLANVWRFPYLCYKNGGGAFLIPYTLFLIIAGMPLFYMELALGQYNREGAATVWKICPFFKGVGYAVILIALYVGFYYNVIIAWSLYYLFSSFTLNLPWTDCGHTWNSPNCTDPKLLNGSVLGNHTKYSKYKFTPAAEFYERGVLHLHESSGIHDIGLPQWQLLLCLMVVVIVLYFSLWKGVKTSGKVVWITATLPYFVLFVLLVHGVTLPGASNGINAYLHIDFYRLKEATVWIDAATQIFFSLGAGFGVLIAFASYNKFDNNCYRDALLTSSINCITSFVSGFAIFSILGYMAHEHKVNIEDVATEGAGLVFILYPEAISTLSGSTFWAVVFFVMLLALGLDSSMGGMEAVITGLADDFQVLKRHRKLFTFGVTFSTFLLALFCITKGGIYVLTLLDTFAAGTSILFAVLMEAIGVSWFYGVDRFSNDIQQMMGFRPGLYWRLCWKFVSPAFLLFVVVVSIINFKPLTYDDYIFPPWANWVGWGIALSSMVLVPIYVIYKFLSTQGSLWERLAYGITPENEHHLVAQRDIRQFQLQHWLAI
T1 sequence (P28223 whole entry): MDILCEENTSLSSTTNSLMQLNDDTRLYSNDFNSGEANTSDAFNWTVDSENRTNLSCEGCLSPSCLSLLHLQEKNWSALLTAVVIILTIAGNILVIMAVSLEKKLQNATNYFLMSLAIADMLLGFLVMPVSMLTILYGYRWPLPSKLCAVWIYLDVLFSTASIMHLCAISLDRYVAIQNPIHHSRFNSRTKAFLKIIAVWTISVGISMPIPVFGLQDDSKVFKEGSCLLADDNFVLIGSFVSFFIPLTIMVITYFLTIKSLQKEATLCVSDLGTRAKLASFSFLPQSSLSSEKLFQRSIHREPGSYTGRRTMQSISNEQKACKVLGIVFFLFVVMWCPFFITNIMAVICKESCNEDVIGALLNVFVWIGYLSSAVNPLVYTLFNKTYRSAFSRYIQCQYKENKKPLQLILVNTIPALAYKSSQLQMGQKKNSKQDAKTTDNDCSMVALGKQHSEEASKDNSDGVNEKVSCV
T2 sequence (P31645 whole entry): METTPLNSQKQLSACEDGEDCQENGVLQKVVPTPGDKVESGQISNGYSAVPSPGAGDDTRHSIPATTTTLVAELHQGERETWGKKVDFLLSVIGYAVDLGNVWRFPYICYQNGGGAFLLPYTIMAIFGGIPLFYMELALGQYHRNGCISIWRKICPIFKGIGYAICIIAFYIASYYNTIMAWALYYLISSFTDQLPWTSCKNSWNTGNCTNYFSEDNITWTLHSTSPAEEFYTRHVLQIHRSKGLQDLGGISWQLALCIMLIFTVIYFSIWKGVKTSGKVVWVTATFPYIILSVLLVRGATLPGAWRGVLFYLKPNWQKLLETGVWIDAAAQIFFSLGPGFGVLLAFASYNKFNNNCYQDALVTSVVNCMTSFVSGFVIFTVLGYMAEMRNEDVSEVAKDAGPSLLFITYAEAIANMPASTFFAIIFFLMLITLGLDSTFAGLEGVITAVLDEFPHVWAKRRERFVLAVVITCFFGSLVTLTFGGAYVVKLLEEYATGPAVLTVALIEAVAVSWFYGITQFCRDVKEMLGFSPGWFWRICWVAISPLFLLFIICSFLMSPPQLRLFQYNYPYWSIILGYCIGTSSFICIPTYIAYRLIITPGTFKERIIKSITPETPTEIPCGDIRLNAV
T4 sequence (Q01959 whole entry): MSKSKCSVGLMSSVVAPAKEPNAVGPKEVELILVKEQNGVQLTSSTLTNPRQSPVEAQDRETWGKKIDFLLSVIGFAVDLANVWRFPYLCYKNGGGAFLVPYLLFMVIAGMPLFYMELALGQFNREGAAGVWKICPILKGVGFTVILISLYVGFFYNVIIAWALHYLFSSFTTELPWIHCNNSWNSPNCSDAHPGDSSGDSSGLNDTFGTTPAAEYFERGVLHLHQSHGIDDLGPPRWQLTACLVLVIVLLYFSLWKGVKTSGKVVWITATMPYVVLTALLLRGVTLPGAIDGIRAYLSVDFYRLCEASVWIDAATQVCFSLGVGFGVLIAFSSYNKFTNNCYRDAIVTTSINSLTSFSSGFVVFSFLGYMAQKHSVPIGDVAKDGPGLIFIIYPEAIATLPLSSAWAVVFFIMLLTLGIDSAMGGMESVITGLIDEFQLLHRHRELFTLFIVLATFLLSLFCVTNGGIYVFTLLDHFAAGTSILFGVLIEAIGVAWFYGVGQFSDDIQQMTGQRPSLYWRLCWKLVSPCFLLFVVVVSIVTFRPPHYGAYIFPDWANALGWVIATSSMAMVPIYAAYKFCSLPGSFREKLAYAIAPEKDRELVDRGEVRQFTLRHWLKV
T5 sequence (Q05940 whole entry): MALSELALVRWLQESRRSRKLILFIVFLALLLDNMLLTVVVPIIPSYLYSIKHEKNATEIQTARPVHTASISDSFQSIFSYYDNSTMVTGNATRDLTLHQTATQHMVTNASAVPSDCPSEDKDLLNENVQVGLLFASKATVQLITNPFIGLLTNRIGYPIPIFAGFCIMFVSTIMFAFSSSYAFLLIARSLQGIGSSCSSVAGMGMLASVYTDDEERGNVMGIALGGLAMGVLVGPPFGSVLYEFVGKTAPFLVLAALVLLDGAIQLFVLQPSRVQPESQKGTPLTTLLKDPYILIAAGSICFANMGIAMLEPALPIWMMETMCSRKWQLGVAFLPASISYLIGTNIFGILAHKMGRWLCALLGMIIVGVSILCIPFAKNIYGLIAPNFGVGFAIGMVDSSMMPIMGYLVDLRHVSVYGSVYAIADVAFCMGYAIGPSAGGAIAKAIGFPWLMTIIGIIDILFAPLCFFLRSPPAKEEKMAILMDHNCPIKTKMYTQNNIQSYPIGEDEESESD
hSigma1 receptor, sequence (Q99720 whole entry): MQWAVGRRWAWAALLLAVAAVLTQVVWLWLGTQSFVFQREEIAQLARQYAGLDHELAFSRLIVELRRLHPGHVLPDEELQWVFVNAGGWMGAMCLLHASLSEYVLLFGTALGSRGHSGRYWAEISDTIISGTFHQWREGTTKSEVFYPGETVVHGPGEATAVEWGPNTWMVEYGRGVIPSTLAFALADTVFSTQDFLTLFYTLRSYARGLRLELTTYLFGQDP

| SMILES | h5-HT2A agonist activity, inositol monophosphate (h5-HT2A receptor [1]) | Ki (hSERT [2]) | Ki (hNET [3]) | IC50 (hSERT [4]) | IC50 (hNET [5]) | Ki (hDAT [6]) | IC50 (hDAT [7]) | % maximum release ± sem, hDAT [3H]DA (hDAT [8]) | EC50 (hDAT [8]) | time of peak/maximal [3H]DA release after addition of drug (hDAT [8]) | % maximum release ± sem, hSERT [3H]5-HT (hSERT [9]) | EC50 (hSERT [9]) | time of peak [3H]5-HT release after addition of drug (hSERT [9]) | EC50 (hNET [10]) | time of peak [3H]NE release after addition of drug (hNET [10]) | % maximum release ± sem, hNET [3H]NE (hNET [10]) | Ki (hVMAT2 [11]) | IC50 (hVMAT2 [12]) | EC50 (hVMAT2 [13]) | Release of [3H]NE % maximum release ± sem or range, hVMAT2 (hVMAT2 [13]) | further results |
| --- | --- | --- | --- | --- | --- | --- | --- | --- | --- | --- | --- | --- | --- | --- | --- | --- | --- | --- | --- | --- | --- |
| NCCc1c[nH]c2ccc(O)cc12 [5-HT, 5-hydroxy-tryptamine] | full agonists with potencies in the low nanomolar range | – | – | – | – | – | – | – | – | – | – | – | – | – | – | – | – | – | – | – | – |
| CCN(CC)C(=O)[C@@H]1C=C2c3cccc4[nH]cc(c34)C[C@H]2N(C)C1 [LSD, lysergic acid diethylamide] | full agonists with potencies in the low nanomolar range | – | – | – | – | – | – | – | – | – | – | – | – | – | – | – | – | – | – | – | – |
| OC1(c2ccc(Cl)cc2)c2ccccc2C2=NCCN21 (stereo not shown) [Mazindol, reference compound] | – | 0.026 ± 0.012 µM | 0.0054 ± 0.0016 µM | 0.0307 ± 0.0055 µM | 0.00185 ± 0.00049 µM | – | – | – | – | – | – | – | – | – | – | – | – | – | – | – | – |
| CNC(C)C(=O)c1ccc(C)cc1 (stereo not shown) [Mephedrone, 4-methyl-N-methylcathinone] | – | 21 ± 4.8 µM | 11.8 ± 4 µM | 0.51 ± 0.15 µM | 0.0536 ± 0.0087 µM | 4.8 ± 0.75 µM | 0.098 ± 0.027 µM | 68 ± 11% | 1.19 ± 0.34 µM | 8 min | 53 ± 13% | 11.9 ± 4.9 µM | about 6 min | 0.41 ± 0.13 µM | 8 to 16 min | 152 ± 32% | > 1000 µM | 116 ± 8.8 µM | 66 ± 23 µM | 33.1 ± 1.9% | Ki (h5-HT1A receptor [14]): > 91 µM; Ki (h5-HT2C receptor [15]): 9.1 ± 2.1 µM; EC50 (h5-HT1A receptor [16]): 126 ± 29 µM; Emax (h5-HT1A receptor [16]): 44%; h5-HT2A Inhibition of 5-HT-stimulated IP-1 formation % maximum inhibition ± sem (h5-HT2A receptor [17]): 98.7 ± 1.3%; IC50 (h5-HT2C receptor [18]): > 440 µM; h5-HT2C Inhibition of 5-HT-stimulated IP-1 formation % maximum inhibition ± sem (h5-HT2C receptor [18]): 66.3 ± 8.4%; Ki (hSigma1 receptor): 7.8 ± 2 µM; postmortem blood concentration [19]: 0.06 to 3.3 mg/L; postmortem blood concentration (molar) [19]: 0.25 to 14 µM |
| CNC(C)C(=O)c1ccc2c(c1)OCO2 (stereo not shown) [Methylone, 3,4-methylenedioxy-N-methylcathinone] | – | 95.5 ± 4.3 µM | 16.5 ± 4.9 µM | 1.92 ± 0.35 µM | 0.234 ± 0.055 µM | 5.02 ± 0.29 µM | 0.343 ± 0.024 µM | 41 ± 12% | 11.8 ± 5.6 µM | ≤ 6 min | 78 ± 18% | 6.7 ± 2.78 µM | about 6 min | 0.426 ± 0.067 µM | 8 to 16 min | 122 ± 32% | > 1000 µM | > 100 µM | > 100 µM | 21.8 ± 8.5% | ratio of binding Ki to uptake IC50, hDAT (hDAT [7]; [125I]RTI-55 Ki / [3H]DA uptake IC50): 15; ratio of binding Ki to uptake IC50, hSERT (hSERT [4]; [125I]RTI-55 Ki / [3H]5-HT uptake IC50): 50; ratio of binding Ki to uptake IC50, hNET (hNET [5]; [125I]RTI-55 Ki / [3H]NE uptake IC50): 71; fold less potent than METH to induce [3H]DA release (hDAT [8]; EC50 compared to METH): 30 fold; % maximum release ± sem, hDAT [3H]DA (hDAT [8]; listed as methylone): 41%; Release of [3H]NE % maximum release ± sem or range, hVMAT2 (hVMAT2 [13]; listed as methylone): less than 35%; Ki (h5-HT1A receptor [14]): 63.3 ± 0.98 µM; Ki (h5-HT2A receptor [20]): 48.5 ± 8 µM; Ki (h5-HT2C receptor [15]): 10.6 ± 1.8 µM; EC50 (h5-HT1A receptor [16]): 143 ± 32 µM; Emax (h5-HT1A receptor [16]): 47%; IC50 (h5-HT2A receptor [17]): 159 ± 11 µM; h5-HT2A Inhibition of 5-HT-stimulated IP-1 formation % maximum inhibition ± sem (h5-HT2A receptor [17]): 84.7 ± 5.2%; IC50 (h5-HT2C receptor [18]): > 1000 µM; h5-HT2C Inhibition of 5-HT-stimulated IP-1 formation % maximum inhibition ± sem (h5-HT2C receptor [18]): 28.0 ± 7.5%; Ki (hSigma1 receptor): 25.5 ± 7.7 µM; postmortem blood concentration [19]: 0.06 to 3.3 mg/L; postmortem blood concentration (molar) [19]: 0.25 to 14 µM |
| CC(C)(C)[C@]1(O)CCN2C[C@H]3c4ccccc4CCc4cccc(c43)[C@@H]2C1 [butaclamol] | – | – | – | – | – | – | – | – | – | – | – | – | – | – | – | – | – | – | – | – | affinity for the [3H]YM-09151-2 binding site, DA D2 receptor (human DA D2 receptor): subnanomolar |
